Earlier results as cited in article PMC6379498, “Radiosynthesis and in vivo evaluation of ^11C-labeled BMS-193885 and its desmethyl analog as PET tracers for neuropeptide Y1 receptors” (EJNMMI Radiopharmacy and Chemistry, 2019).
Like-named read-outs stand apart in the source and are kept apart here.

Assays:
NPY Y1-R = target: NPY Y1-R; parameters: method as in Poindexter et al. [2002]; conditions: ref Poindexter et al. [2002]; cited from earlier work
[1] = parameters: method as in Antal-Zimanyi et al. [2008]; conditions: ref Antal-Zimanyi et al. [2008]; cited from earlier work
animal models of obesity = test system: animal models of obesity; parameters: method as in Antal-Zimanyi et al. [2008]; conditions: acute and chronic administration, ref Antal-Zimanyi et al. [2008]; cited from earlier work
[2] = parameters: method as in Poindexter et al. [2002]; conditions: in vitro, unlabeled 1, ref Poindexter et al. [2002]; cited from earlier work
[3] = parameters: method as in Antal-Zimanyi et al. [2008]; conditions: rats, ref Antal-Zimanyi et al. [2008]; cited from earlier work
[4] = parameters: method as in Antal-Zimanyi et al. [2008]; conditions: dogs, ref Antal-Zimanyi et al. [2008]; cited from earlier work

SMILES | Ki (NPY Y1-R) [nM] | Brain penetration [1] | Oral bioavailability [1] | Systemic bioavailability [1] | Body weight (animal models of obesity) | Food intake (animal models of obesity) | Stability in rat liver microsomes [2] | Adverse cardiovascular effects [3] | Adverse cardiovascular effects [4]
COC(=O)C1=C(C)NC(C)=C(C(=O)OC)C1c1cccc(NC(=O)NCCCN2CCC(c3cccc(O)c3)CC2)c1 [Compound 2, Dimethyl 4-(3-(3-(3-(4-(3-hydroxyphenyl)piperidin-1-yl)propyl)ureido)phenyl)-2,6-dimethyl-1,4-dihydropyridine-3,5-dicarboxylate] | 2.7 | – | – | – | – | – | – | – | –
COC(=O)C1=C(C)NC(C)=C(C(=O)OC)C1c1cccc(NC(=O)NCCCN2CCC(c3cccc(OC)c3)CC2)c1 [Compound 1] | 3.3 | good | lacks oral bioavailability | good | reduced | reduced | good stability | no serious adverse cardiovascular effects | no serious adverse cardiovascular effects
